Earlier results as cited in patent US10564084B2, “Rapid characterization of the solubility of amphiphiles” (The Trustees of Princeton University, priority 2013, dated 2020).

Details: in water; used to rescale the concentration c

CCCCCCCCCCCCCCCC[N+](C)(C)C.[Cl-] [C16TAC, hexadecyl trimethylammonium chloride]
critical micellar concentration cmc: 1.6 mM
